Drawing on US20260015358A1, “BICYCLIC DERIVATIVES, COMPOSITIONS AND USES THEREOF” (Danatlas Pharmaceuticals Co., Ltd., priority 2023, published 2026), this text covers IC50 for 14 compounds.

The target in assay [1] is T1, WRN [UniPro: Q14191 (WRN_HUMAN), N500-C946] (Homo sapiens (Human), UniProt Q14191). In words: WRN ATPase assay (ADP-Glo). It is filed as biochemical. The settings on record: WRN enzymatic activity assay. The procedure: WRN ATPase assay was initiated to evaluate potential inhibitory effect of compounds for ATP hydrolysis activity of WRN protein. WRN [UniPro: Q14191 (WRN_HUMAN), N500-C946] was expressed and purified in insect system and stored at −80° C. in aliquots. […] ADP quantity produced from ATP hydrolysis by WRN catalytic reaction was measured using a commercially available ADP-Glo Assay (ADP-Glo™ Kinase Assay from Promega, 10000 assays, #V9102). […] Compounds dissolved in DMSO (Sigma, D8418) were plated into a 96-well intermediate plate (BioFil, VWP-032-096) for 3-fold serial titration for 10 points using DMSO, and well-to-well transfer the titrated compounds into another 96-well intermediate plate including assay buffer in advance. Shake the 96-well intermediate plate at 600 rpm for 10 min to fully mix. Specifically, a 4× working mixture of WRN was diluted to a concentration of 8 nM in assay buffer. […] After centrifuging at 1000 rpm and shaking at 500 rpm, the assay plate was pre-incubated for 30 min. Then, 5 μL 2×FORKF DNA and ATP working mixture was dispensed into assay plate. Plate was sealed, centrifuged and incubated for an additional 40 min. at 37° C. The reaction was stopped with the addition of 10 μL of the first ADP-Glo reagent and incubated for 40 min. to remove the excess amount of ATP. Afterwards, 20 μL of ATP detection reagent was added and incubated for 30 min. before reading. Luminescence output was recorded using BMG CLARIO star plus reader. Each concentration of compound was tested in duplicates in the assay plate. Average luminescence signal of high control (Wells with 1% DMSO) was calculated as High Control (HC). Average luminescence signal of low control (Wells with no WRN protein) was calculated as Low control (LC).
T1 sequence (Q14191 500-946): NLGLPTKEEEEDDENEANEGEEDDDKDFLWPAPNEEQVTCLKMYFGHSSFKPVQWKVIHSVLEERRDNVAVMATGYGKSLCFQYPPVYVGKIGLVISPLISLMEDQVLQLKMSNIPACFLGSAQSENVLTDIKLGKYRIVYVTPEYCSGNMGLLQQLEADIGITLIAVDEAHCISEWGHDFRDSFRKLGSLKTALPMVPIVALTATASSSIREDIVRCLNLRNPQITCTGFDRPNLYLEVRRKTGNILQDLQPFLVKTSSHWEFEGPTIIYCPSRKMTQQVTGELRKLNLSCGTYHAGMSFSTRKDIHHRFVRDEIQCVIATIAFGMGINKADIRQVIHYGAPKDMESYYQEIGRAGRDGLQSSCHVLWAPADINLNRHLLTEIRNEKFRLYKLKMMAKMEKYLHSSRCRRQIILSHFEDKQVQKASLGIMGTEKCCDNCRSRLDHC
IC50 values were determined by fitting the data to the standard 4 parameters with Hill Slope using GraphPad Prism software.
Background: In ADP-Glo the light output rises with the ADP produced.

For assay [2], the target named is T1, WRN [UniPro: Q14191 (WRN_HUMAN), N500-C946]. Nature of the assay: WRN unwinding assay (FORKF DNA, fluorescence). It counts as biochemical. The settings on record: Table 14.

A word on the IC50: it is the concentration at which inhibition is half-maximal. Low readings indicate inhibition by little substance, high ones a need for much substance. For `CCc1c(N2CCN(C(=O)c3n[nH]c(=O)[nH]c3=O)CC2)c(=O)n2nc(C3=CCOCC3)nc2n1CC(=O)Nc1ccc(C(F)(F)F)cc1Cl` [Example 22, N-(2-Chloro-4-(trifluoromethyl)phenyl)-2-(2-(3,6-dihydro-2H-pyran-4-yl)-6-(4-(3,5-dioxo-2,3,4,5-tetrahydro-1,2,4-triazine-6-carbonyl)piperazin-1-yl)-5-ethyl-7-oxo-[1,2,4]triazolo[1,5-a]pyrimidin-4(7H)-yl)acetamide], the IC50 in assay [1] and in assay [2] was below 100 nM each time.

With `CCc1c(N2CCN(c3noc4cccnc34)CC2)c(=O)n2nc(C3=CCOCC3)nc2n1CC(=O)Nc1ccc(C(F)(F)F)cc1Cl` [Example 23, N-(2-Chloro-4-(trifluoromethyl)phenyl)-2-(2-(3,6-dihydro-2H-pyran-4-yl)-5-ethyl-6-(4-(isoxazolo[4,5-b]pyridin-3-yl)piperazin-1-yl)-7-oxo-[1,2,4]triazolo[1,5-a]pyrimidin-4 (7H)-yl)acetamide], the IC50 in assay [1] and in assay [2] was above 1000 nM throughout.

With `CCc1c(N2CCN(C(=O)NS(=O)(=O)CC)CC2)c(=O)n2nc(C3=CCOCC3)nc2n1CC(=O)Nc1ccc(C(F)(F)F)cc1Cl` [Example 25, 4-(4-(2-((2-Chloro-4-(trifluoromethyl)phenyl)amino)-2-oxoethyl)-2-(3,6-dihydro-2H-pyran-4-yl)-5-ethyl-7-oxo-4,7-dihydro-[1,2,4]triazolo[1,5-a]pyrimidin-6-yl)-N-(ethylsulfonyl)piperazine-1-carboxamide], the IC50 in assay [1] and in assay [2] was below 100 nM throughout.

Consider `CCC(=O)N1CCN(c2c(CC)n(CC(=O)Nc3ccc(C(F)(F)F)cc3Cl)c3nc(C4=CCOCC4)nn3c2=O)CC1` [Example 27, N-(2-Chloro-4-(trifluoromethyl)phenyl)-2-(2-(3,6-dihydro-2H-pyran-4-yl)-5-ethyl-7-oxo-6-(4-propionylpiperazin-1-yl)-[1,2,4]triazolo[1,5-a]pyrimidin-4(7H)-yl)acetamide], for which the IC50 in assay [1] is 100 to 1000 nM; in assay [2], below 100 nM.

For `CCc1c(N2CCN(S(N)(=O)=O)CC2)c(=O)n2nc(C3=CCOCC3)nc2n1CC(=O)Nc1ccc(C(F)(F)F)cc1Cl` [Example 28, N-(2-Chloro-4-(trifluoromethyl)phenyl)-2-(2-(3,6-dihydro-2H-pyran-4-yl)-5-ethyl-7-oxo-6-(4-sulfamoylpiperazin-1-yl)-[1,2,4]triazolo[1,5-a]pyrimidin-4(7H)-yl)acetamide], the IC50 in assay [1] and in assay [2] was 100 to 1000 nM in each case.

`CCC(=O)NS(=O)(=O)N1CCN(c2c(CC)n(CC(=O)Nc3ccc(C(F)(F)F)cc3Cl)c3nc(C4=CCOCC4)nn3c2=O)CC1` [Example 29, N-((4-(4-(2-((2-Chloro-4-(trifluoromethyl)phenyl)amino)-2-oxoethyl)-2-(3,6-dihydro-2H-pyran-4-yl)-5-ethyl-7-oxo-4,7-dihydro-[1,2,4]triazolo[1,5-a]pyrimidin-6-yl)piperazin-1-yl)sulfonyl) propionamide]: the IC50 in assay [1] and in assay [2] was below 100 nM each time.

Turning to `CCc1c(N2CCN(C(=O)Nc3[nH]cnc3C(F)(F)F)CC2)c(=O)n2nc(C3=CCOCC3)nc2n1CC(=O)Nc1ccc(C(F)(F)F)cc1Cl` [Example 30, 4-(4-(2-((2-Chloro-4-(trifluoromethyl)phenyl)amino)-2-oxoethyl)-2-(3,6-dihydro-2H-pyran-4-yl)-5-ethyl-7-oxo-4,7-dihydro-[1,2,4]triazolo[1,5-a]pyrimidin-6-yl)-N-(4-(trifluoromethyl)-1H-imidazol-5-yl)piperazine-1-carboxamide], the IC50 is 100 to 1000 nM in assay [1] and below 100 nM in assay [2].

As to `CCc1c(N2CCN(C(=O)c3[nH]cnc3C(F)(F)F)CC2)c(=O)n2nc(C3=CCOCC3)nc2n1CC(=O)Nc1ccc(C(F)(F)F)cc1Cl` [Example 31, N-(2-Chloro-4-(trifluoromethyl)phenyl)-2-(2-(3,6-dihydro-2H-pyran-4-yl)-5-ethyl-7-oxo-6-(4-(4-(trifluoromethyl)-1H-imidazole-5-carbonyl)piperazin-1-yl)-[1,2,4]triazolo[1,5-a]pyrimidin-4(7H)-yl)acetamide], the IC50 in assay [1] is 100 to 1000 nM; in assay [2], below 100 nM.

In the case of `CCc1c(N2CCN(C(=O)c3ncsc3N)CC2)c(=O)n2nc(C3=CCOCC3)nc2n1CC(=O)Nc1ccc(C(F)(F)F)cc1Cl` [Example 32, 2-(6-(4-(5-Aminothiazole-4-carbonyl)piperazin-1-yl)-2-(3,6-dihydro-2H-pyran-4-yl)-5-ethyl-7-oxo-[1,2,4]triazolo[1,5-a]pyrimidin-4(7H)-yl)-N-(2-chloro-4-(trifluoromethyl)phenyl)acetamide], the IC50 in assay [1] is 100 to 1000 nM; in assay [2], below 100 nM.

On to `CCC(=O)N(C(=O)Cn1c(CC)c(N2CCN(S(N)(=O)=O)CC2)c(=O)n2nc(C3=CCOCC3)nc12)c1ccc(C(F)(F)F)cc1Cl` [Example 35, N-(2-Chloro-4-(trifluoromethyl)phenyl)-N-(2-(2-(3,6-dihydro-2H-pyran-4-yl)-5-ethyl-7-oxo-6-(4-sulfamoylpiperazin-1-yl)-[1,2,4]triazolo[1,5-a]pyrimidin-4(7H)-yl)acetyl)propionamide], for which the IC50 in assay [1] and in assay [2] was 100 to 1000 nM throughout.

In the case of `CCc1c(N2CCN(C(=O)CNC(=O)OC(C)(C)C)CC2)c(=O)n2nc(C3=CCOCC3)nc2n1CC(=O)Nc1ccc(C(F)(F)F)cc1Cl` [Example 37, tert-Butyl (2-(4-(4-(2-((2-chloro-4-(trifluoromethyl)phenyl)amino)-2-oxoethyl)-2-(3,6-dihydro-2H-pyran-4-yl)-5-ethyl-7-oxo-4,7-dihydro-[1,2,4]triazolo[1,5-a]pyrimidin-6-yl)piperazin-1-yl)-2-oxoethyl)carbamate], the IC50 is below 100 nM in assay [1] and 100 to 1000 nM in assay [2].

Regarding `CCNC(=O)NCC(=O)N1CCN(c2c(CC)n(CC(=O)Nc3ccc(C(F)(F)F)cc3Cl)c3nc(C4=CCOCC4)nn3c2=O)CC1` [Example 41, N-(2-Chloro-4-(trifluoromethyl)phenyl)-2-(2-(3,6-dihydro-2H-pyran-4-yl)-5-ethyl-6-(4-((ethylcarbamoyl)glycyl)piperazin-1-yl)-7-oxo-[1,2,4]triazolo[1,5-a]pyrimidin-4(7H)-yl)acetamide], the IC50 in assay [1] and in assay [2] was below 100 nM in each case.

On to `CCc1c(N2CCN(C(=O)c3cnc4[nH]ccc4c3O)CC2)c(=O)n2nc(C3=CCOCC3)nc2n1CC(=O)Nc1ccc(C(F)(F)F)cc1Cl` [Example 42, N-(2-Chloro-4-(trifluoromethyl)phenyl)-2-(2-(3,6-dihydro-2H-pyran-4-yl)-5-ethyl-6-(4-(4-hydroxy-1H-pyrrolo[2,3-b]pyridine-5-carbonyl)piperazin-1-yl)-7-oxo-[1,2,4]triazolo[1,5-a]pyrimidin-4(7H)-yl)acetamide], for which the IC50 in assay [1] and in assay [2] was below 100 nM each time.

With `CCc1c(N2CCN(C(=O)c3c[nH]c(=O)n(C)c3=O)CC2)c(=O)n2nc(C3=CCOCC3)nc2n1CC(=O)Nc1ccc(C(F)(F)F)cc1Cl` [Example 43, N-(2-Chloro-4-(trifluoromethyl)phenyl)-2-(2-(3,6-dihydro-2H-pyran-4-yl)-5-ethyl-6-(4-(3-methyl-2,4-dioxo-1,2,3,4-tetrahydropyrimidine-5-carbonyl)piperazin-1-yl)-7-oxo-[1,2,4]triazolo[1,5-a]pyrimidin-4(7H)-yl)acetamide], the IC50 was 100 to 1000 nM in assay [1] and below 100 nM in assay [2].
